Assay [1] concerns MDA-MB-231, SK-Br3 and BT-474 breast cancer cells. As to the kind of experiment: Effects in other human breast cancer cell lines. It is filed as cell-based. As to conditions: 50 μM; all three cell lines. Here is the method:
Human MDA-MB-468 and MDA-MB-231 breast cancer cells and murine NIH 3T3 cells were obtained from the ATCC and cultured in DMEM medium. Human SK-Br3 and BT-474 breast cancer cells (ATCC) were cultured in McCoy's 5a medium and Hybri-Care medium, respectively. Mouse embryonic fibroblast (MEF) cells from p27 wild-type and p27 null mice were grown in DMEM. All media were supplemented with 10% fetal calf serum, 10 units/ml penicillin, and 10 μg/ml streptomycin. Subconfluent cells were treated with different concentrations of GGTI, FTI or DMSO vehicle for specific time periods. After treatment, cells were harvested by trypsinization.
To prepare whole cell lysates, cells were trypsinized, washed with phosphate buffered saline (PBS) twice, and lysed in 30 mM Hepes, pH 7.5, 10 mM NaCl, 5 mM MgCl2, 25 mM NaF, 1 mM EGTA, 1% Triton-X-100, 10% glycerol, protease inhibitor cocktail, 2 mM PMSF, 2 mM Na3VO4, and 6.4 mg/ml p-nitrophenylphosphate. […] The protein concentration was determined by the Bradford assay. […] Select bands were quantified using AlphaEaseFC densitometry software (AlphaInnotech, San Leandro, Calif.).
Adherent cells were harvested by trypsinization and diluted with 0.4% Trypan Blue dye and counted on a hemacytometer. Cells excluding the dye were scored as live cells, whereas cells absorbing the dye were scored as dead cells. […]

Another assay relates to p27. The experiment in a line: Western blot / immunoprecipitation of p27 and prenylated proteins in MDA-MB-468 cells. It is filed as cell-based, human. Also noted: Rap1 geranylgeranylation / HDJ-2 farnesylation / processing / p27 protein levels: dose or concentration left out as unconfirmed. Here is the method: MDA-MB-468 cells were lysed using CelLytic™ M Cell Lysis Reagent (Sigma-Aldrich, St. Louis, Mo.) containing protease inhibitor cocktail, 2 mM phenylmethylsulfonylfluoride (PMSF), 2 mM Na3VO4, and 6.4 mg/ml p-nitrophenylphosphate (Sigma-Aldrich). Lysates were incubated overnight with p27 antibody (BD Biosciences, San Jose, Calif.) at 4° C. while rocking; after incubation protein A anti-IgG agarose beads were added and incubated for 2 h at 4° C., then washed four times with an excess of lysis buffer. Samples were then boiled at 100° C. for 10 min in 2×SDS-sample buffer and analyzed by Western blotting as described below.
To prepare whole cell lysates, cells were trypsinized, washed with phosphate buffered saline (PBS) twice, and lysed in 30 mM Hepes, pH 7.5, 10 mM NaCl, 5 mM MgCl2, 25 mM NaF, 1 mM EGTA, 1% Triton-X-100, 10% glycerol, protease inhibitor cocktail, 2 mM PMSF, 2 mM Na3VO4, and 6.4 mg/ml p-nitrophenylphosphate. Lysates were cleared by centrifugation at 12,000×g for 15 min, and the supernatants were collected as whole cell extracts. The protein concentration was determined by the Bradford assay. Proteins were separated by SDS-PAGE and transferred to nitrocellulose membranes, which were then blotted with antibodies specific for whole Rap1 or unprenylated Rap1, Ras, the C-terminal region of pRb, Akt (Santa Cruz Biotechnology, Santa Cruz, Calif.), phospho-Akt(S473) (Cell Signaling, Danvers, Mass.), p27 (BD Biosciences, San Jose, Calif.), phospho-p27(T187) (Invitrogen, Carlsbad, Calif.), HDJ-2 (Lab Vision Corporation, Fremont, Calif.), phosphotyrosine (Millipore, Billerica, Mass.), and β-actin (Sigma-Aldrich, St. Louis, Mo.). Select bands were quantified using AlphaEaseFC densitometry software (AlphaInnotech, San Leandro, Calif.).
In general terms: A western blot detects proteins with antibodies after separation by electrophoresis.

The test system of assay [2] is MDA-MB-231 breast cancer tumors. The experiment in a line: Anti-tumor activity in the nude mouse tumor xenograft model. It is filed as in vivo, nude mice. The settings on record: 100 mg/kg daily i.p. Here is the method: Nude mice (nu/nu, Charles River, Wilmington, Mass.) were maintained in accordance with the Institutional Animal Care and Use Committee (IACUC) procedures and guidelines. MDA-MB-231 cells were harvested via trypsinization, pelleted at 805×g for 5 min, and re-suspended in a 50:50 mixture of sterile PBS and Matrigel (BD Biosciences) at 10×10^6 cells per 100 μl. A volume of 100 μl (˜10×10^6 cells) was injected orthotopically into the upper mammary fat pads of nude mice. The tumor xenografts were monitored by electronic caliper measurements and tumor volume (V) was calculated using the formula V=W^2L/2, where width (W) is […]. When the tumors reached ˜100 mm^3, the animals were randomized and injected intraperiteoneally daily with vehicle (70% DMSO), or 100 mg/kg GGTI-2417 or GGTI-2418, or every third day with GGTI-2418 (200 mg/kg. Tumors were measured every third day for 12-18 days.

Take `COC(=O)[C@H](CC(C)C)NC(=O)N1CCN(Cc2nc[nH]c2C)C(=O)[C@@H]1Cc1ccccc1` [GGTI-2417]: in assay [1], the cell proliferation entry is given as “inhibited cell proliferation” and the p27 protein levels result is recorded as “induced p27 protein levels”. Further, in the assay with p27 (50 μM, MDA-MB-468), the “increase of p27 Tyr phosphorylation” value is reported as 3.5 fold and the “increase of p27 amounts (immunoprecipitated p27)” value was found to be 11.9 fold. Also, in the assay with p27 (MDA-MB-468, 48 h), the “HDJ-2 farnesylation / processing” value is on record as “not the farnesylation of HDJ-2”, the Rap1 geranylgeranylation entry is listed as “inhibited the geranylgeranylation of Rap1” and the p27 protein levels entry is “increased p27 protein levels in a time-dependent manner”. In assay [2], this compound came in with a tumor growth inhibition of 76%.

For the origin of these results see patent US10946012B2, “Methods for inducing tumor regression, inhibiting tumor growth, and inducing apoptosis in breast tumors with geranylgeranyltransferase I inhibitors” (H. Lee Moffitt Cancer Center and Research Institute, Inc., priority 2009, dated 2021).
